The text below walks through data of PMC8761912, “Cryptosporidium parvum Pyruvate Kinase Inhibitors With in vivo Anti-cryptosporidial Efficacy” (Frontiers in Microbiology, 2022).

By EC50 is commonly meant the midpoint of the concentration-response curve. In general, CC50 refers to the concentration giving 50% cytotoxicity. Read a high CC50 as better tolerance by the cells. As a reminder, the IC50 is the concentration that inhibits the measured activity by half.

The conditions of data set [1]: ref https://pubchem.ncbi.nlm.nih.gov, cited from earlier work; for Polar surface area: topological.
The test system of a further data set is C. parvum. In words: In vitro anti-Cryptosporidium activity in infected HCT-8 cells (immunofluorescence assay). In kind it is cell-based, Cryptosporidium parvum. Conditions: for effect on in vitro proliferation and viability of C. parvum: 25 μM, added immediately after infection, 48 h of culture, vs untreated parasites; for EC50: Cryptosporidium parvum; for effect on proliferation of intracellular C. parvum in HCT-8 cells: varying concentrations, 0 h or 2 h PI, analysed 48 h PI, vs infected cultures without compound. How it is done:
Once confluent, the cells were infected with 10^5 freshly excysted C. parvum sporozoites per well, immediately followed by the addition of anti-CpPyK compounds (reconstituted in DMSO) to one set of wells. Control infected cells were treated with DMSO volumes equivalent to those used for the compound-treated cultures. Paromomycin reconstituted in distilled sterile water, served as a positive control at a concentration of 200 μM. […] Briefly, the medium was removed from the culture wells, and the cells were washed two times with PBS before fixation with pre-chilled methanol-acetic acid (9:1) for 5 min at room temperature. Residual fixative was removed by rinsing the wells with PBS. Cells were rehydrated and permeabilized by washing twice with a buffer containing 0.1% Triton X-100, 0.35 M NaCl, and 0.13 M Tris-base, pH 7.6. Normal goat serum (5% in PBS) was used as a blocking agent, and the cell monolayer was stained with a fluorescein-labeled anti-C. parvum polyclonal antibody (Sporo-Glo™; Waterborne, Inc.) overnight at 4°C. The stained cells were washed twice with PBS followed by the addition of 200 μl water to each well. Plates were then imaged with an inverted fluorescence microscope using a 20× objective. The fluorescence generated by intracellular C. parvum parasites was quantified from nine microscopic fields per well of a 96-well plate using the batch process function in ImageJ version v1.50 (NIH, United States) after setting a threshold for the detection of parasites. Control wells with uninfected monolayers were included for background subtraction. Experiments were performed in triplicate and repeated at least three times.
One set of wells with confluent HCT-8 cells received CpPyK inhibitors immediately after C. parvum infection, while the same compounds were added to the other set of wells 2 h post-infection (PI). Control infected cells were treated with varying volumes of DMSO equivalent to the ones used for the compound-treated cultures. Cell monolayers were processed for immunofluorescence analysis after 48 h of incubation as described above. Samples were run in triplicate and three independent assays were performed. EC50 values were calculated using non-linear regression analysis of the mean dose-response curve data in GraphPad PRISM® v8.

The nature of data set [2]: Physicochemical properties adapted from PubChem. The note with it: based on Supplementary Table 2 properties. An excerpt:
Supplementary Table S2. Physicochemical properties of identified CpPyK inhibitors (Adapted from: https://pubchem.ncbi.nlm.nih.gov).
NSC Molecular Molecular Number of Number of Number of Polar number IUPAC name formula weight cLog(p) Hydrogen bond Hydrogen bond rotatable surface donors acceptors bonds area (Å²) […]

Data set [3] is described as follows: In vitro compound cytotoxicity assay (WST-1). In kind it is cell-based. The note with it: human, uninfected HCT-8 cells. How it is done:
Compounds were tested for cytotoxicity in human ileocecal colorectal adenocarcinoma cells [HCT-8 (HRT-18); ATCC® CCL-244™, CVCL_2478] by using the cell proliferation reagent WST-1 (Roche) according to the manufacturer’s protocol. The WST-1 assay is a quantitative colorimetric assay for measurement of metabolically active cells. This assay is based on the reduction of the tetrazolium salt (WST-1) by viable cells. About 5 × 10^4 HCT-8 cells were seeded per well in 96-well plates and grown overnight in 200 μl of RPMI-1640 medium (without phenol red) (Gibco) supplemented with 2.5 g/L of glucose, 1 mM sodium pyruvate, 1.5 g/L of sodium bicarbonate, 10% heat-inactivated FBS (Gibco), and 1 × Antibiotic-Antimycotic (Gibco) at 37°C with 5% CO2 in a humidified incubator. Upon reaching 80–90% confluency, cells were treated with the chemical compounds reconstituted in DMSO for 24 h. The volume of DMSO was kept below 1% of the total culture volume in all the wells to avoid DMSO cytotoxicity. Control wells received equivalent volumes of DMSO used in the reconstituted compounds. After 24 h of culture, 10 μl of the WST-1 reagent was added to each well, and the plates were incubated for 1 h at 37°C with 5% CO2 under dark conditions. The plates were shaken thoroughly and 150 μl of the medium from each well was transferred to a new clear flat-bottom black 96-well plate (Corning). Absorbance was read at a test wavelength of 440 nm and a reference wavelength of 690 nm using a multi-mode microplate reader (Spectra Max iD3; Molecular Devices, United States). The mean percent toxicity (MPT) of each compound was derived by dividing the difference in absorbance (OD) between the compound-treated cells and the DMSO-treated cells by the absorbance from the DMSO-treated cells and multiplying the product by 100:
(2) MPT=[(MeanODDMSO-treated-MeanODCompound-treated)÷MeanODDMSO-treated]×100.
The half maximal cytotoxic concentration (CC50) values were determined by using non-linear regression analysis in GraphPad PRISM® v8. Assays were performed in triplicate and repeated three times.

Data set [4] deals with recombinant CpPyK (rCpPyK) protein (Cryptosporidium parvum, UniProt Q5CSM7). Put plainly: rCpPyK enzymatic activity inhibition assay (ATP detection, Cell Titer-Glo luminescence). In kind it is biochemical. How it is done:
(§1) The in vitro enzymatic activity of the rCpPyK protein was determined by quantitating the amount of ATP produced by the transfer of a phosphate group from phosphoenolpyruvate to adenosine diphosphate (ADP) in the presence of varying concentrations of the recombinant protein (Figure 1A). A typical assay contained 0.5 mM phosphoenolpyruvate, 0.6 mM ADP, 50 mM Tris buffer pH 7.5, 60 mM MgSO4, 100 mM KCl, and varying concentrations of rCpPyK incubated for 3 h at room temperature. The ATP generated was detected in a reaction volume of 50 μl in white opaque-walled 96 well plates by the luciferase-based Cell Titer-Glo 2.0 reagent (Promega) following the manufacturer’s instructions. The enzyme kinetics of rCpPyK were determined by using varying phosphoenolpyruvate (0–8 mM) and ADP (0–2 mM) concentrations in an enzymatic reaction catalyzed by a fixed concentration of the recombinant protein (6 ng/μl). In all assays, reaction mixtures without rCpPyK were included as negative controls. Three independent assays were performed for each experiment, and samples were run in triplicate. The luminescence generated was recorded using a multi-mode microplate reader (Spectra Max iD3; Molecular Devices, United States). GraphPad PRISM® v8 software was used to fit the Michaelis–Menten model directly to the substrate-velocity data to determine the enzymatic kinetic parameters for rCpPyK.
The Diversity Set VI chemical library (Supplementary Table 1) was obtained from the National Cancer Institute (NCI)/Developmental Therapeutics Program (DTP) Open Repository collection of chemical compounds.^1 Compounds were individually reconstituted in molecular biology grade dimethyl sulfoxide (DMSO) from Sigma-Aldrich and stored at −20°C. From the library, 1,424 compounds were screened in 96-well plates using the rCpPyK catalyzed enzyme assay to identify potential CpPyK inhibitors. The reactions were performed in 50 μl reaction volume containing 0.5 mM phosphoenolpyruvate, 0.6 mM ADP, 50 mM Tris buffer pH 7.5, 60 mM MgSO4, 100 mM KCl, and 6 ng/μl of rCpPyK protein with or without compound. The concentration of DMSO in all reaction mixtures was 1% (v/v). Control reactions without rCpPyK protein were included for background subtraction. Following 3 h of incubation at room temperature, an equal volume of the Cell Titer-Glo 2.0 reagent was added to each well, and the luminescence produced was recorded as relative luminescence units (RLU) after 10 min of incubation using a multi-mode microplate reader (Spectra Max iD3; Molecular Devices, United States). The mean percent inhibition (MPI) of rCpPyK activity by each compound was derived by dividing the difference in luminescence (RLU) between the compound-treated wells and the DMSO-treated wells by the luminescence of the DMSO-treated wells and multiplying the product by 100:
(1) MPI=[(MeanRLUDMSO-treated-MeanRLUCompound-treated)÷MeanRLUDMSO-treated]×100.
Half maximal inhibitory concentration (IC50) values were determined by applying a non-linear regression analysis curve fit to the mean dose-response data for varying concentrations of each compound using GraphPad PRISM® v8. Reactions were performed in triplicate and repeated at least thrice.
A general note: In ATP-based viability assays light output follows the ATP content of the culture.

The target of the next data set is T1, rCpPyK (Cryptosporidium parvum, UniProt Q5CSM7).
T1 sequence (Q5CSM7 7-532): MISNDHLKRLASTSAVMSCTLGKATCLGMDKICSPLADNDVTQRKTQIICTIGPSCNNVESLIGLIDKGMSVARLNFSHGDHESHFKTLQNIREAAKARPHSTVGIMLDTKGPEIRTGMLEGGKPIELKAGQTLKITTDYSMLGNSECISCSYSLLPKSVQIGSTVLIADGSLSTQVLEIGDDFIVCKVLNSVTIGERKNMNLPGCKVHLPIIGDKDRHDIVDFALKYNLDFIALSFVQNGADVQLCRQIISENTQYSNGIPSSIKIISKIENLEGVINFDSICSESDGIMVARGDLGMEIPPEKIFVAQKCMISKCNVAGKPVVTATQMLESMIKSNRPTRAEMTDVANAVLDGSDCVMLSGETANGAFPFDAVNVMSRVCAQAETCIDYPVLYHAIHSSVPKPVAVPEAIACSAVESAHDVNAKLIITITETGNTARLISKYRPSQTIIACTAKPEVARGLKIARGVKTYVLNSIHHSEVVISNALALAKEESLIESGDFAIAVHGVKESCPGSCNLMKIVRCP
The note with it: previously reported for CpPyK; ref Denton et al. (1996); cited from earlier work.

Another data set is described as follows: Solubility. Format: physicochemical. The note with it: solvent not stated.
Substrate in data set [5]: C=C(OP(=O)(O)O)C(=O)O
Put plainly: rCpPyK enzyme kinetics on substrates (Michaelis–Menten). In kind it is biochemical, Cryptosporidium parvum. The note with it: other: 6 ng/μl rCpPyK, varying substrate; pH 7.5. How it is done:
as §1

Substrate in data set [6]: Nc1ncnc2c1ncn2[C@@H]1O[C@H](COP(=O)(O)OP(=O)(O)O)[C@@H](O)[C@H]1O
Described as above. Format: biochemical, Cryptosporidium parvum. The note with it: other: 6 ng/μl rCpPyK, varying substrate; pH 7.5. Here is the method:
as §1

The mark [7] stands for this setting: HCT-8, read-out: Anti-C. parvum EC50, 0 h PI.
Where [8] appears, read: HCT-8, read-out: Anti-C. parvum EC50, 2 h PI.

Like-named read-outs stand apart in the source and are kept apart here. Marks after values point to notes of the source that are not given here.

On to `COc1cccc(/C=C2\CCc3ccccc3C2=O)c1` [NSC636718, (2E)-2-[(3-methoxyphenyl)methylidene]-3,4-dihydronaphthalen-1-one], for which, in data set [1], the “Number of Hydrogen bond acceptors” value is on record as 2, the “Number of Hydrogen bond donors” value is 0 and the Polar surface area is reported as 26.3 Å². Moreover, in the data set with C. parvum, the “effect on in vitro proliferation and viability of C. parvum” value is given as “significant inhibitory effect”; the “effect on proliferation of intracellular C. parvum in HCT-8 cells” value is on record as “significant (P < 0.05) concentration-dependent inhibitory effect”. Moreover, the concentration giving a half-maximal response (EC50) with C. parvum (setting [7]) stood at 33.8 µM. In the data set on C. parvum (setting [8]), the EC50 came to 33.6 µM. In the data set on C. parvum (HCT-8 CC50 / anti-C. parvum EC50), the “Selectivity index (CC50/EC50)” value worked out at 3.15. The “conformity to Lipinski's and Veber's rules for drug-likeness” value in data set [2] is recorded as “conform”. This molecule registered a CC50 at 24 h in data set [3] of 106 µM. Besides, in [4] (6 ng/μl rCpPyK, 3 h at room temperature, read-out: Enzyme inhibition IC50), the IC50 is 117 µM.
Take `C=C(OP(=O)(O)O)C(=O)O` [Phosphoenolpyruvate, phosphoenolpyruvate]: at rCpPyK, the Km was 320 µM and the Vmax was 6.82 nmol/µg/min.
Consider `CN(C)c1ccc(/C=C/C(=O)c2cc(Cl)ccc2O)cc1` [NSC11437, (E)-1-(5-chloro-2-hydroxyphenyl)-3-[4-(dimethylamino)phenyl]prop-2-en-1-one], for which the solubility result in “Solubility” was “low solubility”. Further, in [1], the “Number of Hydrogen bond acceptors” value was 3, the “Number of Hydrogen bond donors” value is 1 and the Polar surface area is reported as 40.5 Å². Besides, in the data set on C. parvum, the “effect on in vitro proliferation and viability of C. parvum” value is “significant inhibitory effect”; the “effect on proliferation of intracellular C. parvum in HCT-8 cells” value was “significant (P < 0.05) concentration-dependent inhibitory effect”. Also, the concentration giving a half-maximal response (EC50) with C. parvum (setting [7]) came to 23.8 µM. In addition, the concentration for a half-maximal effect (EC50) with C. parvum (setting [8]) was 27.3 µM. For the same molecule, the “conformity to Lipinski's and Veber's rules for drug-likeness” value in data set [2] is recorded as “conform”. It took 612 µM to reach half-maximal cytotoxicity in data set [3] (CC50 at 24 h). Besides, the IC50 in [4] worked out at 156 µM.

B1: rCpPyK (Cryptosporidium parvum Iowa II) (protein)
chain: T1 sequence (Q5CSM7 7-532)
Turning to B1, in data set [5], the Km was 1.29 (0.32^a) mM and the Vmax was 12.1 µmol/min/mg. In [6], the Km came to 40 µM and the Vmax was 4.64 µmol/min/mg.
